Assay results: patent US4740601A, “Imidazole derivatives having antimicrobial activities” (SS Pharmaceutical Co., Ltd., priority 1985, dated 1988)
In brackets after ≈: the same amount, converted by molar mass. Like-named read-outs stand apart in the source and are kept apart here.

Tests used:
Format in all cases: cell-based
[1] = system: Microsporum cookei IFO 8303; assay: antimicrobial activity, MIC
[2] = system: Pyricularia oryzae IAM 5016; assay: microbe, parasite or virus in culture
[3] = system: Aspergillus niger ATCC 9642; assay: antimicrobial activity, MIC
[4] = system: Trichophyton mentagrophytes IFO 5812; assay: antimicrobial activity, MIC
[5] = system: Trichophyton mentagrophytes QM 248; assay: antimicrobial activity, MIC
[6] = system: Bacillus subtilis ATCC 6633; assay: antimicrobial activity, MIC
[7] = system: Penicillium chrysogenum ATCC 6010; assay: antimicrobial activity, MIC
[8] = system: Epidermophyton floccosum IFO 9045; assay: antimicrobial activity, MIC
Candida albicans Yu-1200 = assay: antimicrobial activity, MIC
[9] = system: Staphylococcus aureus Smith; assay: antimicrobial activity, MIC
[10] = system: Saccharomyces cerevisiae ATCC 9763; assay: antimicrobial activity, MIC
[11] = system: Streptococcus faecalis IFO 12964; assay: antimicrobial activity, MIC
[12] = system: Staphylococcus aureus FDA 209P; assay: antimicrobial activity, MIC
Sarcina lutea ATCC 9341 = assay: antimicrobial activity, MIC
[13] = system: Staphylococcus aureus Terajima; assay: antimicrobial activity, MIC
[14] = system: Helminthosporium sesamum IAM 5012; assay: antimicrobial activity, MIC
Saccharomyces ruxii 6507 = assay: antimicrobial activity, MIC
[15] = system: Gibberella fujikuroi IAM 8046; assay: antimicrobial activity, MIC
[16] = system: Aspergillus oryzae IMF 4014; assay: antimicrobial activity, MIC
[17] = system: Microsporum audounii IFO 6074; assay: antimicrobial activity, MIC
[18] = system: Staphylococcus epidermidis ATCC 12228; assay: antimicrobial activity, MIC
[19] = system: Cladosporium fulvum IAM 5006; assay: antimicrobial activity, MIC
[20] = system: Micrococcus lysodeixticus IFO 3333; assay: antimicrobial activity, MIC
[21] = system: Trichophyton tonsurans IFO 5928; assay: antimicrobial activity, MIC
[22] = system: Microsporum gypseum IFO 8231; assay: antimicrobial activity, MIC
[23] = system: Trichophyton rubrum NHL J; assay: antimicrobial activity, MIC; conditions: Trichophyton rubrum NHL J
[24] = system: Candida albicans NHL 4019; assay: antimicrobial activity, MIC
[25] = system: Debaryomyces kloeckeri IFO 0015; assay: antimicrobial activity, MIC
[26] = system: Fusarium moniliforme IAM 5062; assay: antimicrobial activity, MIC
[27] = Staphylococcus aureus, read-out: MIC
[28] = Saccharomyces cerevisiae, ATCC9763, Saccharomyces cerevisiae ATCC 9763, read-out: MIC
[29] = Enterococcus faecalis, IFO12964, Streptococcus faecalis IFO 12964, read-out: MIC
[30] = Staphylococcus aureus, FDA209P, read-out: MIC
[31] = Saccharomyces ruxii 6507, read-out: MIC
[32] = Staphylococcus epidermidis, ATCC12228, Staphylococcus epidermidis ATCC 12228, read-out: MIC
[33] = Fulvia fulva, IAM5006, Cladosporium fulvum IAM 5006, read-out: MIC
[34] = Nannizzia gypsea, IFO8231, Microsporum gypseum IFO 8231, read-out: MIC
[35] = Candida albicans, NHL4019, Candida albicans NHL 4019, read-out: MIC
[36] = Fusarium verticillioides, IAM5062, Fusarium moniliforme IAM 5062, read-out: MIC
[37] = Trichophyton mentagrophytes IFO 5812
[38] = Trichophyton mentagrophytes QM 248
[39] = Penicillium chrysogenum ATCC 6010
[40] = Epidermophyton floccosum IFO 9045
[41] = Helminthosporium sesamum IAM 5012
[42] = Trichophyton tonsurans IFO 5928

Question: For `CCCCCSC=C(c1ccccc1OCC)n1ccnc1` (single isomer, unassigned) [Compound 49], which MIC ([1]; Paraphyton cookei, IFO8303, Microsporum cookei IFO 8303, read-out: MIC) is on record?
Answer: 1.56 µg/mL (≈ 4.93 µM)

Question: And the MIC ([2]; Pyricularia oryzae, IAM5016, Pyricularia oryzae IAM 5016)?
Answer: < 0.2 µg/mL

Question: And the MIC ([3]; Aspergillus niger, ATCC9642, Aspergillus niger ATCC 9642, read-out: MIC)?
Answer: < 0.2 µg/mL

Question: And the MIC ([4]; Trichophyton mentagrophytes, IFO5812, Trichophyton mentagrophytes IFO 5812, read-out: MIC)?
Answer: < 0.2 µg/mL

Question: And the MIC ([5]; Trichophyton mentagrophytes, QM248, Trichophyton mentagrophytes QM 248, read-out: MIC)?
Answer: < 0.2 µg/mL

Question: And the MIC ([6]; Bacillus subtilis, ATCC6633, Bacillus subtilis ATCC 6633, read-out: MIC)?
Answer: 3.12 µg/mL (≈ 9.86 µM)

Question: What about the MIC ([7]; Penicillium chrysogenum, ATCC6010, Penicillium chrysogenum ATCC 6010, read-out: MIC) of the same compound?
Answer: 6.25 µg/mL (≈ 19.7 µM)

Question: And the MIC ([8]; Epidermophyton floccosum, IFO9045, Epidermophyton floccosum IFO 9045, read-out: MIC)?
Answer: 0.78 µg/mL (≈ 2.46 µM)

Question: And the MIC (Candida albicans Yu-1200; YU1200, read-out: MIC)?
Answer: 25 µg/mL (≈ 79 µM)

Question: And the MIC [9, 27]?
Answer: 12.5 µg/mL (≈ 39.5 µM)

Question: What about the MIC [10, 28] of the same compound?
Answer: 50 µg/mL (≈ 158 µM)

Question: What about the MIC [11, 29] of the same compound?
Answer: 6.25 µg/mL (≈ 19.7 µM)

Question: What about the MIC [12, 30] of the same compound?
Answer: 12.5 µg/mL (≈ 39.5 µM)

Question: And the MIC (Sarcina lutea ATCC 9341; Micrococcus luteus, ATCC9341, Sarcina lutea ATCC 9341, read-out: MIC)?
Answer: 3.12 µg/mL (≈ 9.86 µM)

Question: And the MIC [13, 27]?
Answer: 6.25 µg/mL (≈ 19.7 µM)

Question: And the MIC ([14]; Helminthosporium, IAM5012, Helminthosporium sesamum IAM 5012, read-out: MIC)?
Answer: 0.39 µg/mL (≈ 1.23 µM)

Question: And the MIC (Saccharomyces ruxii 6507; [31])?
Answer: < 0.2 µg/mL

Question: And the MIC ([15]; Fusarium fujikuroi, IAM8046, Gibberella fujikuroi IAM 8046, read-out: MIC)?
Answer: 0.39 µg/mL (≈ 1.23 µM)

Question: What about the MIC ([16]; Aspergillus oryzae, IMF4014, Aspergillus oryzae IMF 4014, read-out: MIC) of the same compound?
Answer: 0.78 µg/mL (≈ 2.46 µM)

Question: And the MIC ([17]; Microsporum, IFO6074, Microsporum audounii IFO 6074, read-out: MIC)?
Answer: < 0.2 µg/mL

Question: And the MIC [18, 32]?
Answer: 3.12 µg/mL (≈ 9.86 µM)

Question: What about the MIC [19, 33] of the same compound?
Answer: 25 µg/mL (≈ 79 µM)

Question: What about the MIC ([20]; Micrococcus, IFO3333, Micrococcus lysodeixticus IFO 3333, read-out: MIC) of the same compound?
Answer: 1.56 µg/mL (≈ 4.93 µM)

Question: What about the MIC ([21]; Trichophyton tonsurans, IFO5928, Trichophyton tonsurans IFO 5928, read-out: MIC) of the same compound?
Answer: < 0.2 µg/mL

Question: And the MIC [22, 34]?
Answer: < 0.2 µg/mL

Question: What about the MIC ([23]; Trichophyton rubrum, read-out: MIC) of the same compound?
Answer: < 0.2 µg/mL

Question: And the MIC [24, 35]?
Answer: 25 µg/mL (≈ 79 µM)

Question: And the MIC ([25]; IFO0015, read-out: MIC)?
Answer: 12.5 µg/mL (≈ 39.5 µM)

Question: And the MIC [26, 36]?
Answer: 1.56 µg/mL (≈ 4.93 µM)

Question: `CCCOc1ccccc1C(=CSc1ccccc1)n1ccnc1` (single isomer, unassigned) [Compound 64] was tested. Which MIC ([1]; Microsporum cookei IFO 8303) did it give?
Answer: 12.5 µg/mL (≈ 37.2 µM)

Question: What about the MIC ([2]; Pyricularia oryzae IAM 5016) of the same compound?
Answer: < 0.2 µg/mL

Question: And the MIC ([3]; Aspergillus niger ATCC 9642)?
Answer: 12.5 µg/mL (≈ 37.2 µM)

Question: And the MIC [4, 37]?
Answer: < 0.2 µg/mL

Question: And the MIC [5, 38]?
Answer: 0.78 µg/mL (≈ 2.32 µM)

Question: And the MIC ([6]; Bacillus subtilis ATCC 6633)?
Answer: 6.25 µg/mL (≈ 18.6 µM)

Question: And the MIC [7, 39]?
Answer: 12.5 µg/mL (≈ 37.2 µM)

Question: What about the MIC [8, 40] of the same compound?
Answer: 6.25 µg/mL (≈ 18.6 µM)

Question: What about the MIC (Candida albicans Yu-1200; YU1200, read-out: MIC) of the same compound?
Answer: > 100 µg/mL

Question: And the MIC [9, 27]?
Answer: 12.5 µg/mL (≈ 37.2 µM)

Question: What about the MIC [10, 28] of the same compound?
Answer: 50 µg/mL (≈ 149 µM)

Question: What about the MIC [11, 29] of the same compound?
Answer: 25 µg/mL (≈ 74.3 µM)

Question: And the MIC [12, 30]?
Answer: 25 µg/mL (≈ 74.3 µM)

Question: What about the MIC (Sarcina lutea ATCC 9341; Sarcina lutea ATCC 9341) of the same compound?
Answer: 6.25 µg/mL (≈ 18.6 µM)

Question: And the MIC [13, 27]?
Answer: 6.25 µg/mL (≈ 18.6 µM)

Question: And the MIC [14, 41]?
Answer: 6.25 µg/mL (≈ 18.6 µM)

Question: And the MIC (Saccharomyces ruxii 6507; Saccharomyces, 6507, Saccharomyces ruxii 6507)?
Answer: 1.56 µg/mL (≈ 4.64 µM)

Question: And the MIC ([15]; Gibberella fujikuroi IAM 8046)?
Answer: 25 µg/mL (≈ 74.3 µM)

Question: And the MIC ([16]; Aspergillus oryzae IMF 4014)?
Answer: 6.25 µg/mL (≈ 18.6 µM)

Question: And the MIC ([17]; Microsporum audounii IFO 6074)?
Answer: < 0.2 µg/mL

Question: What about the MIC [18, 32] of the same compound?
Answer: 6.25 µg/mL (≈ 18.6 µM)

Question: And the MIC [19, 33]?
Answer: > 100 µg/mL

Question: And the MIC ([20]; Micrococcus, IFO3333)?
Answer: 1.56 µg/mL (≈ 4.64 µM)

Question: And the MIC [21, 42]?
Answer: 3.12 µg/mL (≈ 9.27 µM)

Question: What about the MIC [22, 34] of the same compound?
Answer: 6.25 µg/mL (≈ 18.6 µM)

Question: And the MIC [23]?
Answer: < 0.2 µg/mL

Question: What about the MIC [24, 35] of the same compound?
Answer: > 100 µg/mL

Question: And the MIC ([25]; IFO0015, read-out: MIC)?
Answer: > 100 µg/mL

Question: What about the MIC [26, 36] of the same compound?
Answer: 50 µg/mL (≈ 149 µM)

Question: With `CCCOc1ccccc1C(=CSc1ccccc1)n1ccnc1` (single isomer, unassigned) [Compound 65] as the compound, how does the MIC ([1]; Microsporum cookei IFO 8303) read?
Answer: 100 µg/mL (≈ 297 µM)

Question: And the MIC ([2]; Pyricularia oryzae IAM 5016)?
Answer: 1.56 µg/mL (≈ 4.64 µM)

Question: What about the MIC ([3]; Aspergillus niger ATCC 9642) of the same compound?
Answer: > 100 µg/mL

Question: What about the MIC [4, 37] of the same compound?
Answer: 3.12 µg/mL (≈ 9.27 µM)

Question: What about the MIC [5, 38] of the same compound?
Answer: 12.5 µg/mL (≈ 37.2 µM)

Question: And the MIC ([6]; Bacillus subtilis ATCC 6633)?
Answer: 3.12 µg/mL (≈ 9.27 µM)

Question: What about the MIC [7, 39] of the same compound?
Answer: > 100 µg/mL

Question: What about the MIC [8, 40] of the same compound?
Answer: 100 µg/mL (≈ 297 µM)

Question: What about the MIC (Candida albicans Yu-1200) of the same compound?
Answer: > 100 µg/mL

Question: And the MIC [9]?
Answer: 6.25 µg/mL (≈ 18.6 µM)

Question: And the MIC ([10]; Saccharomyces cerevisiae ATCC 9763)?
Answer: 25 µg/mL (≈ 74.3 µM)

Question: And the MIC ([11]; Streptococcus faecalis IFO 12964)?
Answer: 12.5 µg/mL (≈ 37.2 µM)

Question: And the MIC [12]?
Answer: 12.5 µg/mL (≈ 37.2 µM)

Question: What about the MIC (Sarcina lutea ATCC 9341; Sarcina lutea ATCC 9341) of the same compound?
Answer: 3.12 µg/mL (≈ 9.27 µM)

Question: What about the MIC [13] of the same compound?
Answer: 6.25 µg/mL (≈ 18.6 µM)

Question: What about the MIC [14, 41] of the same compound?
Answer: 100 µg/mL (≈ 297 µM)

Question: And the MIC (Saccharomyces ruxii 6507; [31])?
Answer: 6.25 µg/mL (≈ 18.6 µM)

Question: And the MIC ([15]; Gibberella fujikuroi IAM 8046)?
Answer: > 100 µg/mL

Question: And the MIC ([16]; Aspergillus oryzae IMF 4014)?
Answer: > 100 µg/mL

Question: What about the MIC ([17]; Microsporum audounii IFO 6074) of the same compound?
Answer: 6.25 µg/mL (≈ 18.6 µM)

Question: What about the MIC ([18]; Staphylococcus epidermidis ATCC 12228) of the same compound?
Answer: 6.25 µg/mL (≈ 18.6 µM)

Question: What about the MIC ([19]; Cladosporium fulvum IAM 5006) of the same compound?
Answer: > 100 µg/mL

Question: And the MIC ([20]; Micrococcus lysodeixticus IFO 3333)?
Answer: 1.56 µg/mL (≈ 4.64 µM)

Question: What about the MIC [21, 42] of the same compound?
Answer: 12.5 µg/mL (≈ 37.2 µM)

Question: What about the MIC ([22]; Microsporum gypseum IFO 8231) of the same compound?
Answer: 12.5 µg/mL (≈ 37.2 µM)

Question: And the MIC [23]?
Answer: 3.12 µg/mL (≈ 9.27 µM)

Question: And the MIC ([24]; Candida albicans NHL 4019)?
Answer: > 100 µg/mL

Question: And the MIC [25]?
Answer: > 100 µg/mL

Question: And the MIC ([26]; Fusarium moniliforme IAM 5062)?
Answer: > 100 µg/mL
